Measured values as given in ChEMBL document CHEMBL5046240, “Design, synthesis, and evaluation of potent RIPK1 inhibitors with in vivo anti-inflammatory activity” (Eur J Med Chem, 2022).
Active and inactive are the calls of the source. The calls are words filed in the database; no cut-off is given here.

Experiments:
[1] = system: HT-29; assay: Anti-necroptic activity in human HT-29 cells assessed as TNFalpha/Z-VAD (TSZ) induced necroptosis by measuring cell viability preincubated for 1 hr followed by TSZ addition ans measured after 24 hrs by celltiter-glo luminescent cell viability assay; type: functional, cell-based
[2] = Metabolic stability in human liver microsomes assessed as half life by LC-MS/MS analysis; type: ADME
[3] = biological target: CYP2C19 (Homo sapiens, UniProt P33261); assay: Inhibition of CYP2C19 (unknown origin) using cocktail of probe as substrate at 10 uM preincubated for 20 mins followed by substrate addition and measured after 20 mins by LC-MS/MS analysis relative to control; type: ADME; settings: time 40 min
[4] = biological target: CYP2D6 (Homo sapiens, UniProt P10635); assay: Inhibition of CYP2D6 (unknown origin) using dextromethorphan as cocktail probe substrate at 10 uM preincubated for 20 mins followed by substrate addition and measured after 20 mins by LC-MS/MS analysis relative to control; type: ADME; settings: time 40 min
[5] = biological target: CYP3A4 (Homo sapiens, UniProt P08684); assay: Inhibition of CYP3A4 (unknown origin) using midazolam as cocktail probe substrate at 10 uM preincubated for 20 mins followed by substrate addition and measured after 20 mins by LC-MS/MS analysis relative to control; type: ADME; settings: time 40 min
[6] = Protein binding in human plasma by LC-MS/MS based equilibrium dialysis method; type: ADME, cell-free; settings: read-out: PPB (converted)
[7] = Protein binding in rat plasma by LC-MS/MS based equilibrium dialysis method; type: ADME, cell-free; settings: read-out: PPB (converted)
[8] = Metabolic stability in human liver microsomes assessed as intrinsic clearance by LC-MS/MS analysis; type: ADME, Microsome; settings: read-out: CLH
[9] = Metabolic stability in rat liver microsomes assessed as intrinsic clearance by LC-MS/MS analysis; type: ADME, Microsome; settings: read-out: CLH
[10] = AUC (0 to 24 hrs) in Sprague-Dawley rat at 10 mg/kg, po measured upto 24 hrs by LC-MS/MS analysis; type: ADME, organism-based; parameters: route oral, dose 10 mg/kg, time <=24; settings: in vivo
[11] = Volume of distribution at steady state in Sprague-Dawley rat at 2 mg/kg, iv measured upto 24 hrs by LC-MS/MS analysis; type: ADME, organism-based; settings: in vivo, read-out: Vdss
[12] = Oral bioavailability in Sprague-Dawley rat at 10 mg/kg measured upto 24 hrs by LC-MS/MS analysis; type: ADME, organism-based; settings: in vivo
[13] = biological target: T1, Receptor-interacting serine/threonine-protein kinase 1 (Homo sapiens, UniProt Q13546); assay: Binding affinity to wild-type human partial length RIPK1 (M1 to K305 residues) expressed in bacterial expression system measured after 1 hr by Kinomescan method
T1 sequence (Q13546 whole entry): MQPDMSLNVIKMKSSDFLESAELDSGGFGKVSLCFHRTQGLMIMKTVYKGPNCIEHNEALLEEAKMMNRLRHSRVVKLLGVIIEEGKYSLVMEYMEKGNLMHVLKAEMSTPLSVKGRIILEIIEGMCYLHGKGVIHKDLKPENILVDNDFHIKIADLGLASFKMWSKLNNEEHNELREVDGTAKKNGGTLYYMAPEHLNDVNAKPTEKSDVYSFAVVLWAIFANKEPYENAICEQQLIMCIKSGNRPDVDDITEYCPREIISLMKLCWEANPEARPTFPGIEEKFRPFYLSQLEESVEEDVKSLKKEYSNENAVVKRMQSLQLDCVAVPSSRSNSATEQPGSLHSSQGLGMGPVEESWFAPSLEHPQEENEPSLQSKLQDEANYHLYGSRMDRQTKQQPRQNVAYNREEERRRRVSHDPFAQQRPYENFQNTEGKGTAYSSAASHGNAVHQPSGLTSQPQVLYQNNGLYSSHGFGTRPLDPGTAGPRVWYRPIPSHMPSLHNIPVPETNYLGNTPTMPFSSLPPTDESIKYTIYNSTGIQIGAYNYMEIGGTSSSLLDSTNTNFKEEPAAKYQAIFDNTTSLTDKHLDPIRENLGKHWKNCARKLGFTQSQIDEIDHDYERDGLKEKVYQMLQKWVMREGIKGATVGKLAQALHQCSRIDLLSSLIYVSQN

[14] = system: Mus musculus; assay: Anti-necroptosis activity against TNFalpha-induced C57BL/6J mouse systemic inflammatory response syndrome model assessed as reduction in lethal shock at 3 mg/kg, ip pretreated for 15 mins and measured upto 72 hrs after TNFalpha stimulation; type: functional, organism-based
[15] = Toxicity in C57BL/6J mouse assessed as effect on liver morphological changes at 5 to 25 mg/kg, po administered daily for 7 days by H and E staining method; type: organism-based; settings: in vivo, 168 h, dose 5-25 mg/kg, time 7 day
[16] = Toxicity in C57BL/6J mouse assessed as effect on kidney morphological changes at 5 to 25 mg/kg, po administered daily for 7 days by H and E staining method; type: organism-based; settings: in vivo, 168 h, dose 5-25 mg/kg, time 7 day
[17] = Half life in Sprague-Dawley rat at 2 mg/kg, iv measured upto 24 hrs by LC-MS/MS analysis; type: ADME, organism-based; settings: in vivo
[18] = AUC (0 to 24 hrs) in Sprague-Dawley rat at 2 mg/kg, iv measured upto 24 hrs by LC-MS/MS analysis; type: ADME, organism-based; parameters: route intravenous, dose 2 mg/kg, time <=24; settings: in vivo
[19] = Fraction unbound clearance in Sprague-Dawley rat; type: ADME

Chain of CYP2C19 (P33261 whole entry): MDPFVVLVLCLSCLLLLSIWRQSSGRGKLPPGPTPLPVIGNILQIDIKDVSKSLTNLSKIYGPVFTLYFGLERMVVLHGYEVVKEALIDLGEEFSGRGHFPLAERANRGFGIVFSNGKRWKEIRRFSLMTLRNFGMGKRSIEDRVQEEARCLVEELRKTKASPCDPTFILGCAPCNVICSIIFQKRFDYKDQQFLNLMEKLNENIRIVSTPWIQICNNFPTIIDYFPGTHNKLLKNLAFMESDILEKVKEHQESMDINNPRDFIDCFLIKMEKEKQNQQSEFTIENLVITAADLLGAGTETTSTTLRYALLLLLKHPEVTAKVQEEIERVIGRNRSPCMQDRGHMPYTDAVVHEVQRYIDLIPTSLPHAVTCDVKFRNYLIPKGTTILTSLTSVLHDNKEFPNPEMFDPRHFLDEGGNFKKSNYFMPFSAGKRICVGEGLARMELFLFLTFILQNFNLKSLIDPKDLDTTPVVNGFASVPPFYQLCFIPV
Chain of CYP2D6 (P10635 whole entry): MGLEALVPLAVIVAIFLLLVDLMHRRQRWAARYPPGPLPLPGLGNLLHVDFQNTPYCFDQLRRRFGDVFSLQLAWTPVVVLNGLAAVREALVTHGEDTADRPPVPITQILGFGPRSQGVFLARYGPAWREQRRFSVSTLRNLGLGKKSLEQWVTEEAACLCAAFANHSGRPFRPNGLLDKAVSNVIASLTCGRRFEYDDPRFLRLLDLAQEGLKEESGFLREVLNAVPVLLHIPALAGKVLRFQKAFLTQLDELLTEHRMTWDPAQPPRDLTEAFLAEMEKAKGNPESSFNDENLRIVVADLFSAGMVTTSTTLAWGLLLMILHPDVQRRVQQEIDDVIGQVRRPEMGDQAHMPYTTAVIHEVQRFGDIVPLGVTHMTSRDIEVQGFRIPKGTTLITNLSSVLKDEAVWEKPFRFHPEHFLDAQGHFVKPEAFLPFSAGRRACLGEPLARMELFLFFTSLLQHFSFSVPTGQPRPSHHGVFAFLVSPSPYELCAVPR
Chain of CYP3A4 (P08684 whole entry): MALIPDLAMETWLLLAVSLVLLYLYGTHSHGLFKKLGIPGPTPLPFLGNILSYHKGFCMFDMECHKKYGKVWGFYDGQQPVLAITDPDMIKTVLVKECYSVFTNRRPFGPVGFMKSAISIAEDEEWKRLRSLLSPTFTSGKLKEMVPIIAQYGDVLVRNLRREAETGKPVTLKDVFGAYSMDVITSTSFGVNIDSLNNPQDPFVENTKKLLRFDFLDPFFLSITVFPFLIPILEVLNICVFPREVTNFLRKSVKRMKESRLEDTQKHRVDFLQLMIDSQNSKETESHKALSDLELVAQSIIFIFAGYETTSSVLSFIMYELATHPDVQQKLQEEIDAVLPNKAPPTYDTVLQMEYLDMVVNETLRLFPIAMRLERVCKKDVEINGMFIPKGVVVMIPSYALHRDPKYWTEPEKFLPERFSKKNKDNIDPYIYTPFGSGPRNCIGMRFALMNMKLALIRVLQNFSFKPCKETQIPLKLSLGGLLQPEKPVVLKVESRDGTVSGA

Compound: Cc1ncc(-c2ccc3nc(NC(=O)C4CC4)sc3c2)cc1NC(=O)OC1CCOCC1
- EC50 [1]: 17 nM
- half-life [2]: 1.48 h
- inhibition at 20 min, 10 µM [3]: 41%
- inhibition at 20 min, 10 µM [4]: 21%
- inhibition at 20 min, 10 µM [5]: 17%
- fraction unbound [6]: 0.016
- fraction unbound [7]: 0.018
- CLint scaled [8]: 49 mL/min/kg
- CLint scaled [9]: 159 mL/min/kg
- AUC [10]: 1208 ng·h/mL
- Vd [11]: 2.4 L/kg
- F [12]: 63%
- Kd [13]: 9.2 nM
- Activity [14]: Active
- Activity [15]: Non-Toxic
- Activity [16]: Non-Toxic
- half-life [17]: 1 h
- AUC [18]: 1208 ng·h/mL
- CL free [19]: 183 mL/min/kg
